Test results from PubChem BioAssay (NCI).
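Step 1: Grow cells in 96-well plates. Step 2: Expose to compound for 48 hours at 5 concentrations. Step 3: Interpolate endpoints linearly; if unreached, use highest concentration. The concentration for 50% growth inhibition is given as GI50. TGI: total growth inhibition.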

How the values were obtained:
Assay in all cases: DTP human tumour cell line panel, 48 h
[1] = tested on: 786-0 renal
[2] = tested on: A498 renal
[3] = tested on: A549 NSCLC
[4] = tested on: ACHN renal
[5] = tested on: BT-549 breast
[6] = tested on: CAKI-1 renal
[7] = tested on: CCRF-CEM leukemia
[8] = tested on: COLO 205 colon
[9] = tested on: DU-145 prostate
[10] = tested on: EKVX NSCLC
[11] = tested on: HCC-2998 colon
[12] = tested on: HCT-116 colon
[13] = tested on: HCT-15 colon
[14] = tested on: HL-60(TB) leukemia
[15] = tested on: HOP-62 NSCLC
[16] = tested on: HOP-92 NSCLC
[17] = tested on: HS 578T breast
[18] = tested on: HT29 colon
[19] = tested on: IGROV1 ovarian
[20] = tested on: K-562 leukemia
[21] = tested on: KM12 colon
[22] = tested on: LOX IMVI melanoma
[23] = tested on: M14 melanoma
[24] = tested on: MALME-3M melanoma
[25] = tested on: MCF7 breast
[26] = tested on: MDA-MB-231 breast
[27] = tested on: MDA-MB-435
[28] = tested on: MOLT-4 leukemia
[29] = tested on: NCI-H226 lung
[30] = tested on: NCI-H23 lung
[31] = tested on: NCI-H460 lung
[32] = tested on: NCI-H522 lung
[33] = tested on: NCI/ADR-RES ovarian
[34] = tested on: OVCAR-3 ovarian
[35] = tested on: OVCAR-4 ovarian
[36] = tested on: OVCAR-5 ovarian
[37] = tested on: OVCAR-8 ovarian
[38] = tested on: PC-3 prostate
[39] = tested on: RPMI-8226 leukemia
[40] = tested on: RXF 393 renal
[41] = tested on: SF-268 CNS
[42] = tested on: SF-295 CNS
[43] = tested on: SF-539 CNS
[44] = tested on: SK-MEL-2 melanoma
[45] = tested on: SK-MEL-28 melanoma
[46] = tested on: SK-MEL-5 melanoma
[47] = tested on: SK-OV-3 ovarian
[48] = tested on: SN12C renal
[49] = tested on: SNB-19 CNS
[50] = tested on: SNB-75 CNS
[51] = tested on: SW-620 colon
[52] = tested on: T-47D breast
[53] = tested on: TK-10 renal
[54] = tested on: U251 CNS
[55] = tested on: UACC-257 melanoma
[56] = tested on: UACC-62 melanoma
[57] = tested on: UO-31 renal
[58] = tested on: SR leukemia

O=C(O)[C@H](Cc1c[nH]c2ccccc12)N1C(=O)c2ccccc2C1=O
TGI [1]: > 100 µM | GI50 [2]: 87.3 µM | TGI [2]: > 100 µM | TGI [3]: > 100 µM | TGI [4]: > 100 µM | TGI [5]: > 100 µM | TGI [6]: > 100 µM | GI50 [7]: > 100 µM | TGI [7]: > 100 µM | TGI [8]: > 100 µM | TGI [9]: > 100 µM | TGI [10]: > 100 µM | TGI [11]: > 100 µM | TGI [12]: > 100 µM | TGI [13]: > 100 µM | GI50 [14]: > 100 µM | TGI [14]: > 100 µM | TGI [15]: > 100 µM | GI50 [16]: 72.3 µM | TGI [16]: > 100 µM | TGI [17]: > 100 µM | TGI [18]: > 100 µM | GI50 [19]: > 100 µM | TGI [19]: > 100 µM | GI50 [20]: > 100 µM | TGI [20]: > 100 µM | TGI [21]: > 100 µM | TGI [22]: > 100 µM | TGI [23]: > 100 µM | TGI [24]: > 100 µM | TGI [25]: > 100 µM | TGI [26]: > 100 µM | TGI [27]: > 100 µM | GI50 [28]: > 100 µM | TGI [28]: > 100 µM | TGI [29]: > 100 µM | TGI [30]: > 100 µM | TGI [31]: > 100 µM | TGI [32]: > 100 µM | TGI [33]: > 100 µM | TGI [34]: > 100 µM | TGI [35]: > 100 µM | TGI [36]: > 100 µM | GI50 [37]: > 100 µM | TGI [37]: > 100 µM | TGI [38]: > 100 µM | TGI [39]: > 100 µM | TGI [40]: > 100 µM | TGI [41]: > 100 µM | TGI [42]: > 100 µM | TGI [43]: > 100 µM | TGI [44]: > 100 µM | TGI [45]: > 100 µM | TGI [46]: > 100 µM | TGI [47]: > 100 µM | TGI [48]: > 100 µM | TGI [49]: > 100 µM | TGI [50]: > 100 µM | TGI [51]: > 100 µM | TGI [52]: > 100 µM | TGI [53]: > 100 µM | TGI [54]: > 100 µM | TGI [55]: > 100 µM | TGI [56]: > 100 µM | TGI [57]: > 100 µM

Cc1cccc(Br)[n+]1[O-]
TGI [1]: > 100 µM | TGI [3]: > 100 µM | TGI [4]: > 100 µM | TGI [5]: > 100 µM | TGI [6]: > 100 µM | TGI [7]: > 100 µM | TGI [8]: > 100 µM | TGI [9]: > 100 µM | TGI [10]: > 100 µM | TGI [12]: > 100 µM | TGI [13]: > 100 µM | TGI [15]: > 100 µM | TGI [16]: > 100 µM | TGI [17]: > 100 µM | TGI [18]: > 100 µM | TGI [19]: > 100 µM | TGI [20]: > 100 µM | TGI [21]: > 100 µM | TGI [22]: > 100 µM | TGI [23]: > 100 µM | TGI [24]: > 100 µM | TGI [25]: > 100 µM | TGI [26]: > 100 µM | TGI [27]: > 100 µM | TGI [28]: > 100 µM | TGI [29]: > 100 µM | TGI [30]: > 100 µM | TGI [31]: > 100 µM | TGI [32]: > 100 µM | TGI [33]: > 100 µM | TGI [34]: > 100 µM | TGI [35]: > 100 µM | TGI [36]: > 100 µM | TGI [37]: > 100 µM | TGI [38]: > 100 µM | TGI [39]: > 100 µM | TGI [40]: > 100 µM | TGI [41]: > 100 µM | TGI [42]: > 100 µM | TGI [43]: > 100 µM | TGI [44]: > 100 µM | TGI [45]: > 100 µM | TGI [46]: > 100 µM | TGI [47]: > 100 µM | TGI [48]: > 100 µM | TGI [49]: > 100 µM | TGI [50]: > 100 µM | TGI [58]: > 100 µM | TGI [51]: > 100 µM | TGI [52]: > 100 µM | TGI [53]: > 100 µM | TGI [54]: > 100 µM | TGI [55]: > 100 µM | TGI [56]: > 100 µM | TGI [57]: > 100 µM
